Experiment [1] concerns Diplocladon sp. 1 star-worm luciferase, wild type, SEQ ID NO: 1. Put plainly: Km determination for star-worm luciferase (luminescence kinetics). It is filed as biochemical. The note with it: 0.1 M Tris-HCl pH 8.0, 8 mM MgSO4.
Experimental: The measurements were carried out ten times for each sample, and the average of absorbance was used for the calculation.
A solution of 0.1 M Tris-HCl (pH 8.0) containing each purified luciferase, 4 mM of ATP, and 8 mM of MgSO4 was connected to the standard pump of a luminometer, and measurement was carried out at the same time of adding 50 μl of the solution to the well. A Luminescensor (ATTO) was used for the measurement. Measurement was repeated three times for each luciferin concentration.
The peak intensity of the obtained photon count value was plotted with respect to luciferin concentration S, defining the initial rate as V. The plots were subjected to curve fitting of Michaelis Menten type, thereby giving Km values. The curve fitting was performed by a nonlinear least-squares method, and search of parameter was performed by a Newton method.
Measurement of Km Value with Respect to ATP
Under various ATP concentrations, the luminous intensity of the obtained luciferase was measured. Based on the results, Km values was determined with respect to ATP.
Various eight types of ATP solutions were prepared by adding ATP to 0.1 M Tris-HCl (pH 8.0). These solutions contain ATP at final concentration of 10, 20, 40, 80, 160, 320, 480, or 640 μM. These ATP solutions were each injected into a 96-well microplate at a volume of 50 μl. […]
Experiment [2] relates to CBR luciferase derived from click beetle. Put plainly: Km determination for known luciferase CBR (luminescence kinetics). It counts as biochemical. The note with it: 0.1 M Tris-HCl pH 8.0; enzyme solution with 1 mM D-luciferin, 8 mM MgSO4; read-out: Km for ATP.
Another experiment relates to HeLa cell. Briefly: Luminous intensity expressed in HeLa cell, star-worm luciferase vs P. pyralis luciferase (Example 3). The note with it: 2 mM D-luciferin, 25° C., 90 minutes, normalised to sea pansy luciferase internal control, codon-optimized gene with Kozak sequence. It counts as cell-based. Here is the method:
The luminous intensities when expressed in a HeLa cell were compared between a star-worm luciferase and P. pyralis luciferase.
Regarding a star-worm luciferase, Kozak sequence was added to a nucleic acid optimized for expression in a mammalian cell and then inserted into between SgfI site and PmeI site of a multicloning site of pF9A CMV hRLuc neo Flexi vector (Promega). According to addition of Kozak sequence, an amino acid encoded by the codon immediately after initiation codon, proline, was changed to alanine. […] For the purpose of comparison, Kozak sequence was added to a known P. pyralis nucleic acid containing an optimized gene for expression in a mammalian cell, and then inserted into apF9A CMV hRLuc neo Flexi vector in a similar manner.
Each of the two types of plasmids obtained by the aforementioned manner was introduced into HeLa cells by means of lipofection method, and 24 hours later the cells were washed with PBS. […] According to the figure, the star-worm luciferase induced luminescence having 1.5 times the luminous intensity in a HeLa cell of that induced by P. Pyralis luciferase.

Like-named read-outs stand apart in the source and are kept apart here.

By Km is commonly meant the substrate concentration at which the rate is half of its maximum. On to `O=C(O)[C@H]1CSC(c2nc3ccc(O)cc3s2)=N1` [D-luciferin], for which, in experiment [1] (read-out: Km for D-luciferin, enzyme solution with 4 mM ATP), the Km stood at 38.9 µM.

For `Nc1ncnc2c1ncn2[C@@H]1O[C@H](COP(=O)(O)OP(=O)(O)OP(=O)(O)O)[C@@H](O)[C@H]1O` [ATP, Adenosine triphosphate], the Michaelis-Menten constant (Km) came out at 110 µM in experiment [1] (enzyme solution with 1 mM D-luciferin, read-out: Km for ATP) and 47 µM in experiment [2].

B1: star-worm luciferase: Novel luciferase cloned from star-worm Diplocladon sp. 1, amino acid sequence SEQ ID NO: 1 (protein, listed as Diplocladon sp.)
chain: MPNEIVLHGAKPRDPLDLGTAGSQLFRSLTQFSYLREALVDAHTEQVVSYADILENSCRLAICFEKYGLRQNSVIAVCSENSAIFFYPVIAALYMGIITATVNDNYTERELFDTLNISKPELVFCSKKAIKNLTQLKNHIDFIKKLVVLDSDEDIGEVESLANFMKRYSESVIDVRNFKPRDFDAKEQVALIMSSSGTTGLPKGVVLTHRNLSVRFVHCKDPLFGTRTVPSTSILSIVPFHHAFGMFTTLSYFIVGLRVILLKRFEEEFFLSTIEKYRIPTIVLAPPVMVFLAKSPLVDQYDVSSIREVATGGAPVGIEVAEAVAKRLKINGILQGYGLTETCCAVLITPHDHVKTGSTGKVAPYVQAKVVDLSTGKSLGPNKRGELCFKSEIIMKGYFNNIKATEEAIDKEGWLHSGDVGYYDEDGHFYVVDRLKELIKYKGYQVAPAELEWLLLQHPAIKDAGVTGVPDEAAGELPGACIVLEEGHSLTEQEVIEYVAERVSPTKRIRGGVVFVDDIPKGATGKLVRSELRRMLSQKKSKL
As to B1, the “luminous intensity relative to that induced by P. pyralis firefly luciferase” value in the experiment on HeLa cell is reported as 1.5 times.

These data come from patent US9234186B2, “Star-worm luciferase” (OLYMPUS CORPORATION, priority 2011, dated 2016).
